Measurements taken from publication PMC12589562, “Structural and functional characterization of TgGSK3, a druggable kinase in Toxoplasma gondii” (Nature Communications, 2025).

Assays:
TgGSK3 = target: T1, TgGSK3 (Toxoplasma gondii, UniProt A0A125YY75); assay: X-ray co-crystal structure ([…] Å and […] Å); microscale thermophoresis; Kinase-Glo inhibition (IC50 […]); type: binding
T1 construct: gene TGGT1_265330; kinase domain, aa 46-385 (orthorhombic crystal) and aa 20/21-385 (monoclinic crystal)

[1] = target: recombinant TgGSK3 (amino acids 21-385), C-terminal 6His (Toxoplasma gondii); assay: crystal structure; monoclinic crystal at 3.0 A of TgGSK3 (aa 20 to 385) with LY2090314; hanging drops in 5% MPD, 9% PEG 6000, 0.1 M Tris pH 7.5; crystals grew after several weeks; four subunits in the asymmetric unit

| Molecule | Kd (TgGSK3) [µM] | stoichiometry N [1] |
| --- | --- | --- |
| O=C1NC(=O)C(c2cnc3ccccn23)=C1c1cn2c3c(cc(F)cc13)CN(C(=O)N1CCCCC1)CC2 [compound 209, LY2090314] | 0.034 | – |
| recombinant TgGSK3 (amino acids 21-385), C-terminal 6His (from UniProt A0A125YY75 21-385) (enzyme) | – | 2 |
